# Reference: patent US8592419B2, “Ceramides and apoptosis-signaling ligand” (MUSC Foundation for Research Development, priority 2004, dated 2013)
# Key:
# DU145 xenografts = test: DU145 prostate cancer xenografts in nude mice
# Source text: One of the problems with cancer gene therapy as it is currently practiced is the issue of delivery of gene therapy vectors to every tumor cell in order to effect death of the tumor. […] The inventors devised a model of molecular cell killing in a solid tumor in which only perhaps up to 30% of the cells are infected by the virus. Since the ceramide analogs of the invention are acid CDase inhibitors which sensitize the cells to this type of cell death, an in vivo experiment in which prostate cancer xenografts, in this case DU145 cells, were grown in nude mice and treated sequentially with the acid Cdase inhibitor LCL204 followed by the AdGFPFasL virus. […] The LCL204 was administered at 0, 72 and 144 hours and the virus (1×10^9 pfu) at 10 and 82 hours.
# DU145 cells = test: Cell death by MTS assay, ceramide analog combined with AdGFPFasL virus; assay type: cell-based, human
# Procedure: LCL102, a ceramidase inhibitor, which acts to increasing intracellular ceramide levels by […], were tested in this system. This molecule was highly efficient at activating cell death in DU145 cells at nontoxic doses if combined with AdGFPFasL virus at MOIs achievable in vivo. DU145 cells growing in 96 well plates at 1×10^4 cells/well are treated with either media alone or LCL102 at 2 uM for 48 hours followed by AdGFPFasL for 24 hours at the MOI (5-80). Cell death is assayed by the MTS assay. At 2 uM LCL102 and 5MOI of virus, cell death is amplified 4-fold compared to LCL102 alone (FIG. 14).
# p73 = test: Immunoblot of p73; assay type: cell-based, human
# Procedure: Immunoblot analysis. Cells were seeded in 60mm plates as described above and treated accordingly. Cells were lifted by gently scraping the plates, washed once with ice cold PBS and then lysed in lysis buffer (PBS, 1% Triton X-100, 10% glycerol) containing protease inhibitors pepstatin A (0.5 μg/ml), leupeptin (0.5 μg/ml), aprotinin (5 μg/ml), and PMSF (100 μg/ml) for 10 minutes on ice. Insoluble material was removed by centrifugation at 14,000 rpm for 15 minutes at 4° C. The supernatants were then supplemented with SDS at a final concentration of 2% and stored at −80° C. Protein concentrations were determined using the DC Protein Assay (BioRad Laboratories; Hercules, CA, USA) according to the manufacturer's instructions. 50 μg of protein per sample (unless otherwise indicated) were separated on NuPAGE 4-12% Bis-Tris gels (Invitrogen; Carlsbad, CA, USA) and transferred to nitrocellulose membranes (BioRad). Following transfer, membranes were blocked for 1 hour at room temperature in Tris-buffered saline (TBS) containing 0.1% Tween-20 and 5% nonfat dry milk and incubated overnight at 4° C. with primary antibody at a dilution of 1:2,000(actin), 1:1,000(cytochrome c, COX IV, Bax, Bak, p53, p38, P-p38), 1:500(P-JNK, JNK), 1:250 (AC, p73), or 1:400(LAMP-1, cathepsin B). Overnight incubations were performed in 5% milk in TBS-Tween. Following overnight incubation, membranes were washed three times for 10 minutes each in TBS-Tween and incubated for 1 hour at room temperature with secondary antibody in 5% milk TBS-Tween at a dilution 1:5,000 (goat anti-mouse IgG) or 1:50,000 (goat anti-rabbit). Membranes were then washed three times more and incubated for 5 minutes at room temperature with Super Signal HRP substrate (Pierce Biotechnology Inc.; Rockford, IL, USA).
# [1] = test system: total ceramide levels in DU145 cells; test: Ceramide measurement by mass spectrometry; assay type: cell-based, human; conditions: 10 μM
# Procedure: Ceramide measurement. 2.1×10^6 cells were seeded in 100 mm plates overnight. The next day, media was removed and replaced with media containing vehicle control or LCL204 (10 μM) for indicated time points. Following treatment, cells were harvested by gentle scraping and immediate centrifugation at 4° C. for 5 minutes at 400×g. Cell pellets were then resuspended in ice cold PBS and stored at −80° C. For sphingolipid analysis, cell pellets were examined using mass spectometry as previously described (61).
# cytochrome c = test: Cytochrome c release into the cytosol (Western blot); assay type: cell-based, human; conditions: 5 or 10 μM, DU145 cells
# Procedure: Immunoblot analysis. Cells were seeded in 60mm plates as described above and treated accordingly. Cells were lifted by gently scraping the plates, washed once with ice cold PBS and then lysed in lysis buffer (PBS, 1% Triton X-100, 10% glycerol) containing protease inhibitors pepstatin A (0.5 μg/ml), leupeptin (0.5 μg/ml), aprotinin (5 μg/ml), and PMSF (100 μg/ml) for 10 minutes on ice. Insoluble material was removed by centrifugation at 14,000 rpm for 15 minutes at 4° C. The supernatants were then supplemented with SDS at a final concentration of 2% and stored at −80° C. Protein concentrations were determined using the DC Protein Assay (BioRad Laboratories; Hercules, CA, USA) according to the manufacturer's instructions. 50 μg of protein per sample (unless otherwise indicated) were separated on NuPAGE 4-12% Bis-Tris gels (Invitrogen; Carlsbad, CA, USA) and transferred to nitrocellulose membranes (BioRad). […]
# Subcellular fractionation. […] Enzyme activity per 50 μg lysate was measured using the fluorogenic cathepsin B substrate 111 (Calbiochem) according to the manufacturer's protocol.
# ASMase = molecular target: T1, ASMase (Homo sapiens, UniProt P17405); test: Acid sphingomyelinase activity assay; assay type: cell-based; conditions: DU145 cells, 10 μM
# T1 construct: DU145 cells were lysed in 50 mM Tris (pH=7.4) using a probe sonicator; endogenous in cells; host or cells: DU145 (lysate of treated cells)
# Procedure: Acid Sphingomyelinase Activity Assay. DU145 cells were lysed in 50 mM Tris (pH=7.4) using a probe sonicator. Cellular debris was removed after centrifugation at 3000×g for 10 minutes. Proteins (50 μg) were adjusted to a total volume of 100 μl and the reaction was started by adding 100 μl of the reaction mixture containing 1 mM EDTA, 250 mM sodium acetate (pH 5.0), 100 μM [choline-methyl-^14C] sphingomyelin and 0.1% Triton X. After incubation at 37° C. for one hour, the reaction was stopped by adding 1.5 ml of chloroform/methanol (2:1) and then 200 μl of water. Phases were separated by centrifugation at 2000×g for 5 minutes. Quantitation of the amount of released radioactive phosphocholine was determined by subjecting 400 μl of the upper phase to scintillation counting.
# T1 sequence (P17405 47-631): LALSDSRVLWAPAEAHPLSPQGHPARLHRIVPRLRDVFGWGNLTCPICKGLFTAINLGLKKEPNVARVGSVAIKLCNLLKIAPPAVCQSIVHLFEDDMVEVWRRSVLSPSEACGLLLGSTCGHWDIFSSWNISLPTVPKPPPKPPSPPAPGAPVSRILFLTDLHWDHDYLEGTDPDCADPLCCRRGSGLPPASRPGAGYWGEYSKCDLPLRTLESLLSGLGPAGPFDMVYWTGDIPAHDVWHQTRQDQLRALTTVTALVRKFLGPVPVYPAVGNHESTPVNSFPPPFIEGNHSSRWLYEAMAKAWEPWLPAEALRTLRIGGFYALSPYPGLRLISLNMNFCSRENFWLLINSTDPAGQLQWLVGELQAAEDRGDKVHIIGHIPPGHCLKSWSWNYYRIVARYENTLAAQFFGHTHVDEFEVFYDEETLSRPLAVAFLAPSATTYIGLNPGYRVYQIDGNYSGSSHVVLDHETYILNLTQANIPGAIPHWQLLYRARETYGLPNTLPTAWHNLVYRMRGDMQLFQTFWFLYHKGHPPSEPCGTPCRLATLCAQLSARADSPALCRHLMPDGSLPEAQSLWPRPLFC
structure (smiles),measurement,setting,value
"CCCCCCCCCCCCCCN[C@H](CO)[C@H](O)c1ccc([N+](=O)[O-])cc1.Cl [LCL204, (1R,2R) D-threo-2-N-Tetradecylamino-1-(4′-nitrophenyl)-1,3-propandiol hydrochloride]","tumor burden, combination of LCL204 and AdGFPFasL virus","DU145 xenografts; LCL204 at 0, 72 and 144 hours followed by virus at 10 and 82 hours",effectively reduce the tumor burden
same,"tumor growth, single agent","DU145 xenografts; LCL204 systemically at 0, 72 and 144 hours, virus 1×10^9 pfu at 10 and 82 hours",some modest effects
same,observable effect on the animal,DU145 xenografts; up to 75 mg/kg,no observable effect on the animal
same,increase in cancer cell death,DU145 cells; 2 μM in combination with AdGFPFasL virus at low MOIs,≤ 10 fold
same,viral infectivity,DU145 cells; DU145 cells,not modifying viral infectivity
same,increase of the ability of AdGFPFasL to kill tumor cells,"DU145 cells; in vitro, subtoxic doses",as much as ten-fold
same,p73β induction,"p73; PC-3 cells, 10 μM",p73β induction was detected after only two hours
same,p73β induction,p73; PPC-1/pcDNA3 cells,time-dependent p73β induction
same,total ceramide levels,[1],rise in total ceramide levels within one hour
same,time by which cytochrome c release into the cytosol was detected,cytochrome c,≤ 4 h
same,earliest decrease in ASMase activity,ASMase,30 min
